Results published in PubChem BioAssay (NCI).
Several values for one entry are separate records, joined by “and”; a condition that tells them apart may be missing. Equal values may be shown once.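 Cultured in 96-well plates, cells were exposed to test compound for 48 hours across five concentrations. The concentration for 50% growth inhibition is given as GI50. TGI: total growth inhibition.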

Legend:
Assay in all cases: NCI tumour cell line growth inhibition, 48 h
SR leukemia = tested on: SR leukemia
RPMI-8226 leukemia = tested on: RPMI-8226 leukemia
NCI-H522 lung = tested on: NCI-H522 lung
KM12 colon = tested on: KM12 colon
OVCAR-3 ovarian = tested on: OVCAR-3 ovarian
HCT-116 colon = tested on: HCT-116 colon
UACC-62 melanoma = tested on: UACC-62 melanoma
SF-268 CNS = tested on: SF-268 CNS
SF-539 CNS = tested on: SF-539 CNS
MALME-3M melanoma = tested on: MALME-3M melanoma

| SMILES | TGI (SR leukemia) | TGI (RPMI-8226 leukemia) | TGI (NCI-H522 lung) | TGI (KM12 colon) | TGI (OVCAR-3 ovarian) [µM] | TGI (HCT-116 colon) | TGI (UACC-62 melanoma) | TGI (SF-268 CNS) [µM] | TGI (SF-539 CNS) | TGI (MALME-3M melanoma) | GI50 (RPMI-8226 leukemia) | GI50 (NCI-H522 lung) | GI50 (UACC-62 melanoma) | GI50 (SF-268 CNS) | GI50 (MALME-3M melanoma) | GI50 (SR leukemia) | GI50 (KM12 colon) [µM] | GI50 (OVCAR-3 ovarian) [µM] | GI50 (HCT-116 colon) [µM] |
| --- | --- | --- | --- | --- | --- | --- | --- | --- | --- | --- | --- | --- | --- | --- | --- | --- | --- | --- | --- |
| CCOC(=O)/C=C1\Nc2ccccc2C12CCc1c([nH]c3ccccc13)C2C(=O)OCC (centres undefined) | > 100 µM | 61.9 µM | > 100 µM | > 100 µM | > 100 | > 100 µM | > 100 µM | > 100 | > 100 µM | > 100 µM | – | – | – | – | – | – | – | – | – |
| CCOC(=O)C1C/C(C)=C(/C)SCCCS1 (centres undefined) | > 100 µM | > 100 µM | 41.5 µM | > 100 µM | > 100 | > 100 µM | > 100 µM | > 100 | > 100 µM | > 100 µM | – | – | – | – | – | – | – | – | – |
| O=C1c2ccccc2NC2C(O)c3ccccc3N12 (centres undefined) | > 100 µM | 54.3 µM | > 100 µM | > 100 µM | > 100 | > 100 µM | 56.8 µM | > 100 | > 100 µM | > 100 µM | – | – | – | – | – | – | – | – | – |
| O=C(c1cccs1)N(C(=S)N1CCN(c2ccccc2)CC1)c1ccccc1 | > 100 µM | > 100 µM | > 100 µM | > 100 µM | > 100 | > 100 µM | > 100 µM | > 100 | > 100 µM | > 100 µM | – | – | – | – | – | – | – | – | – |
| O=[N+]([O-])c1ccc2nc3ccc([N+](=O)[O-])cn3c2c1 | > 100 µM | – | 65.5 µM | > 100 µM | – | > 100 µM | > 100 µM | > 100 | > 100 µM | > 100 µM | – | – | – | – | – | – | – | – | – |
| CCCCCCCCCCCCCCCCP(=O)(O)OP(=O)(O)OCC1OC(n2ccc(N)nc2=O)C(O)C1O (centres undefined) | 23.7 µM | > 100 µM | > 100 µM | > 100 µM | > 100 | > 100 µM and 37.4 µM | > 100 µM | > 100 | 36.3 µM and 88.6 µM | > 100 µM and 50.3 µM | > 100 µM and 35.1 µM | > 100 µM and 24.6 µM | 44.5 µM and 9.63 µM | 83.3 µM and 41.4 µM | > 100 µM and 14 µM | – | – | – | – |
| Oc1ccc2ccccc2c1-c1nnc(CCCCCCCCc2nnc(-c3c(O)ccc4ccccc34)o2)o1 | 25 µM and 11.9 µM | 25 µM and > 100 µM | 5.82 µM and 24.2 µM | 25 µM and > 100 µM | – | 13.7 µM and > 50.3 µM | 25 µM and > 100 µM | > 100 | 16.4 µM | 8.33 µM and 58.2 µM | 3.56 µM | 1.53 µM | 2.54 µM | – | 8.98 µM | 1.6 µM and 0.28 µM | 3.96 | 0.135 | 0.796 |
| CC1(C)OC[C@@H](/C=C\CCO[Si](c2ccccc2)(c2ccccc2)C(C)(C)C)N1C(=O)c1ccccc1 | 23.7 µM | 23.2 µM | 18.8 µM | 34.6 µM | 30.5 | 21.4 µM | 33.1 µM | 81.4 | 45.4 µM | – | – | – | – | – | – | – | – | – | – |
| O=C1c2cc(Cl)ccc2-n2c(noc2=O)C2CSCN12 (centres undefined) | > 100 µM | > 100 µM | > 100 µM | > 100 µM | > 100 | > 100 µM | > 100 µM | > 100 | – | > 100 µM | – | – | – | – | – | – | – | – | – |
| CCCCCCCCCCCCOC1C(COCCN2CCCC2)OC2OC(C)(C)OC21 (centres undefined) | 2.91 µM | 12.1 µM | 2.53 µM | – | 3.05 | 3.13 µM | 3.36 µM | 4.44 | 3.17 µM | 3.35 µM | – | – | – | – | – | – | – | – | – |
| CC1=NN(c2nc(N)nc(/C(C#N)=C/c3ccncc3)n2)C(C)(C)C1 | > 100 µM | > 100 µM | – | > 100 µM | – | > 100 µM | > 100 µM | > 100 | > 100 µM | – | – | – | – | – | – | – | – | – | – |
| CC(=O)N(C(C)=O)n1c(Cc2ccc(Cl)cc2)nn(C(C)=O)c1=O | > 100 µM | > 100 µM | > 100 µM | > 100 µM | > 100 | – | > 100 µM | > 100 | > 100 µM | > 100 µM | – | – | – | – | – | – | – | – | – |
| COc1ccc(Cn2nc(OCc3ccccn3)c3cc([N+](=O)[O-])ccc32)cc1 | > 100 µM | > 100 µM | > 100 µM | > 100 µM | > 100 | – | > 100 µM | > 100 | > 100 µM | > 100 µM | – | – | – | – | – | – | – | – | – |
| CN(C)c1ccc(-c2nc(-c3cc4c(ccc5ccccc54)oc3=O)cs2)cc1 | > 100 µM | > 100 µM | > 100 µM | > 100 µM | – | > 100 µM | > 100 µM | > 100 | > 100 µM | > 100 µM | – | – | – | – | – | – | – | – | – |
| C=CCc1c(O)c2ccccc2[nH]c1=O | > 100 µM | > 100 µM | > 100 µM | > 100 µM | > 100 | > 100 µM | – | – | > 100 µM | > 100 µM | – | – | – | – | – | – | – | – | – |
| CC1CN=C(c2cccc(OCc3ccc(COc4cccc(C5=NCC(C)N5)c4)cc3)c2)N1 (centres undefined) | – | 45.4 µM | > 100 µM | 81.7 µM | > 100 | > 100 µM | > 100 µM | > 100 | 98.7 µM | > 100 µM | – | – | – | – | – | – | – | – | – |
| CN(C)c1ccc(C(=NNC(=O)c2cc3ccccc3[nH]2)c2ccc(N(C)C)cc2)cc1 | > 100 µM | – | 2.53 µM | > 100 µM | 1.81 | > 34.2 µM | > 54 µM | 5.31 | 8.04 µM | – | – | – | – | – | – | – | – | – | – |
| Oc1c2cccc1Cc1cccc3c1OCCOCCOCCOCCOc1c(cccc1Cc1cccc(c1O)C3)C2 | > 100 µM | > 100 µM | > 100 µM | > 100 µM | > 100 | > 100 µM | > 100 µM | > 100 | > 100 µM | – | – | – | – | – | – | – | – | – | – |
| N#Cc1c(N)c(-c2ccc(Cl)cc2)c(F)c2ccccc12 | – | > 100 µM | > 100 µM | > 100 µM | > 100 | > 100 µM | > 100 µM | > 100 | > 100 µM | > 100 µM | – | – | – | – | – | – | – | – | – |
| N#Cc1c(=O)c2cccnc2n2c1[nH]c1ccccc12 | > 100 µM | > 100 µM | – | > 100 µM | > 100 | > 100 µM | > 100 µM | > 100 | > 100 µM | – | – | – | – | – | – | – | – | – | – |
| O=C1c2cc3c(cc2CC12Cc1cc4c(cc1C2)CCC4)CCC3 | > 100 µM | > 100 µM | > 100 µM | > 100 µM | > 100 | > 100 µM | – | > 100 | > 100 µM | > 100 µM | – | – | – | – | – | – | – | – | – |
| COc1ccc(N2C(=O)C3c4[nH]c5ccc(C)cc5c4C4CCC(C(C)C)CC4C3C2=O)cc1 (centres undefined) | > 100 µM | > 100 µM | > 100 µM | > 100 µM | > 100 | > 100 µM | > 100 µM | > 100 | – | – | – | – | – | – | – | – | – | – | – |
